Source: PubChem BioAssay AID1259411 (Chemical Carcinogenesis Research Information System (CCRIS), 2018)
Calls of active or inactive are those of the source. How the calls were made is not given here.

Tested on: rodent carcinogenicity bioassays, tumor incidence
Assay: CCRIS carcinogenicity studies
Settings: Dose: 0
Method in brief: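 NCI-built, expert-reviewed records of carcinogenicity and related test outcomes (mutagenicity, tumor promotion/inhibition) compiled from published and report sources, historical span 1985-2011, not updated.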

Structure (SMILES): Cc1cccc2c1cc(C)c1c3c(ccc12)C(O)C(O)C1OC31 (centres undefined)
- carcinogen call (Species: MOUSE, Strain/Sex: ICR/FEMALE, Route: INTRAPERITONEAL, 8 NMOL IN 5 µL DMSO TO PUPS ON D 1/OF LIFE THEN 16 NMOL IN 10 µL ON D 8 AND 3 NMOL IN 20 µL ON D 15 (STUDY DURATION:, Tumor Site: Type of Lesion: LUNG: TUMOR): active; positive
- carcinogen call (Species: MOUSE, Strain/Sex: ICR/MALE, Route: INTRAPERITONEAL, 8 NMOL IN 5 µL DMSO TO PUPS ON D 1/OF LIFE THEN 16 NMOL IN 10 µL ON D 8 AND 3 NMOL IN 20 µL ON D 15 (STUDY DURATION:, Tumor Site: Type of Lesion: LUNG: TUMOR, LIVER: TUMOR): active; positive

Structure (SMILES): C=C(C)C
- carcinogen call (Species: MOUSE, Strain/Sex: B6C3F1/FEMALE, Route: INHALATION, 500, 2000, 8000 PPM 6 HR/D 5 D/WK FOR 105 WK (STUDY DURATION: 105 WK), 500, 2000, 8000 PPM 6 HR/D 5 D/WK FOR 105 WK (STUDY DURATION: 105 WK)): inactive; negative
- carcinogen call (Species: MOUSE, Strain/Sex: B6C3F1/MALE, Route: INHALATION, 500, 2000, 8000 PPM 6 HR/D 5 D/WK FOR 105 WK (STUDY DURATION: 105 WK), 500, 2000, 8000 PPM 6 HR/D 5 D/WK FOR 105 WK (STUDY DURATION: 105 WK)): inactive; negative
- carcinogen call (Species: RAT, Strain/Sex: F344/N/FEMALE, Route: INHALATION, 500, 2000, 8000 PPM 6 HR/D 5 D/WK FOR 105 WK (STUDY DURATION: 105 WK), 500, 2000, 8000 PPM 6 HR/D 5 D/WK FOR 105 WK (STUDY DURATION: 105 WK)): inactive; negative
- carcinogen call (Species: RAT, Strain/Sex: F344/N/MALE, Route: INHALATION, 500, 2000;8000 PPM 6 HR/D 5 D/WK FOR 105 WK (STUDY DURATION: 105 WK), 500, 2000;8000 PPM 6 HR/D 5 D/WK FOR 105 WK (STUDY DURATION: 105 WK), Tumor Site: Type of Lesion: THYROID GLAND: FOLLICULAR CELL CARCINOMA): equivocal

Structure (SMILES): c1ccc2n[nH]nc2c1
- carcinogen call (Species: MOUSE, Strain/Sex: B6C3F1/FEMALE, Route: ORAL, 11700, 23500 PPM IN DIET FOR 104 WK (STUDY DURATION: 106-109 WK), 11700, 23500 PPM IN DIET FOR 104 WK (STUDY DURATION: 106-109 WK), Tumor Site: Type of Lesion: LUNG: ALVEOLAR/BRONCHIOLAR CARCINOMA): equivocal
- carcinogen call (Species: MOUSE, Strain/Sex: B6C3F1/MALE, Route: ORAL, 11700, 23500 PPM IN DIET FOR 104 WK (STUDY DURATION: 106-109 WK), 11700, 23500 PPM IN DIET FOR 104 WK (STUDY DURATION: 106-109 WK)): inactive; negative
- carcinogen call (Species: RAT, Strain/Sex: F344/FEMALE, Route: ORAL, 6700, 12100 PPM IN DIET FOR 78 WK (STUDY DURATION: 105-106 WK), 6700, 12100 PPM IN DIET FOR 78 WK (STUDY DURATION: 105-106 WK), Tumor Site: Type of Lesion: BRAIN: TUMOR): equivocal
- carcinogen call (Species: RAT, Strain/Sex: F344/MALE, Route: ORAL, 6700, 12100 PPM IN DIET FOR 78 WK (STUDY DURATION: 105-106 WK), 6700, 12100 PPM IN DIET FOR 78 WK (STUDY DURATION: 105-106 WK), Tumor Site: Type of Lesion: BRAIN: TUMOR): equivocal

Structure (SMILES): O=[O+][O-]
- carcinogen call (Species: MOUSE, Strain/Sex: B6C3F1/FEMALE, Route: INHALATION, 0.12, 0.5, 1 PPM 6 HR/D 5 D/WK FOR 105 WK (STUDY DURATION: 105 WK), 0.12, 0.5, 1 PPM 6 HR/D 5 D/WK FOR 105 WK (STUDY DURATION: 105 WK), Tumor Site: Type of Lesion: LUNG (ALVEOLAR/BRONCHIOLAR): ADENOMA OR CARCINOMA): active; positive
- carcinogen call (Species: MOUSE, Strain/Sex: B6C3F1/FEMALE, Route: INHALATION, 0.5, 1 PPM 6 HR/D 5 D/WK FOR 130 WK (STUDY DURATION: 130 WK), 0.5, 1 PPM 6 HR/D 5 D/WK FOR 130 WK (STUDY DURATION: 130 WK), Tumor Site: Type of Lesion: LUNG (ALVEOLAR/BRONCHIOLAR): ADENOMA): active; positive
- carcinogen call (Species: MOUSE, Strain/Sex: B6C3F1/MALE, Route: INHALATION, 0.12, 0.5, 1 PPM 6 HR/D 5 D/WK FOR 105 WK (STUDY DURATION: 105 WK), 0.12, 0.5, 1 PPM 6 HR/D 5 D/WK FOR 105 WK (STUDY DURATION: 105 WK), Tumor Site: Type of Lesion: LUNG: ALVEOLAR/BRONCHIOLAR ADENOMA OR CARCINOMA): equivocal
- carcinogen call (Species: MOUSE, Strain/Sex: B6C3F1/MALE, Route: INHALATION, 0.5, 1 PPM 6 HR/D 5 D/WK FOR 130 WK (STUDY DURATION: 130 WK), 0.5, 1 PPM 6 HR/D 5 D/WK FOR 130 WK (STUDY DURATION: 130 WK), Tumor Site: Type of Lesion: LUNG: ALVEOLAR/BRONCHIOLAR ADENOMA OR CARCINOMA): equivocal
- carcinogen call (Species: RAT, Strain/Sex: F344/FEMALE, Route: INHALATION, 0.12, 0.5, 1 PPM 6 HR/D 5 D/WK FOR 20 MO (STUDY DURATION: 20 MO), 0.12, 0.5, 1 PPM 6 HR/D 5 D/WK FOR 20 MO (STUDY DURATION: 20 MO)): inactive; negative
- carcinogen call (Species: RAT, Strain/Sex: F344/FEMALE, Route: INHALATION, 0.12, 0.5, 1 PPM 6 HR/D 5 D/WK FOR 105 WK (STUDY DURATION: 105 WK), 0.12, 0.5, 1 PPM 6 HR/D 5 D/WK FOR 105 WK (STUDY DURATION: 105 WK)): inactive; negative
- carcinogen call (Species: RAT, Strain/Sex: F344/FEMALE, Route: INHALATION, 0.5, 1 PPM 6 HR/D 5 D/WK FOR 125 WK (STUDY DURATION: 125 WK), 0.5, 1 PPM 6 HR/D 5 D/WK FOR 125 WK (STUDY DURATION: 125 WK)): inactive; negative
- carcinogen call (Species: RAT, Strain/Sex: F344/MALE, Route: INHALATION, 0.12, 0.5, 1 PPM 6 HR/D 5 D/WK FOR 20 MO (STUDY DURATION: 20 MO), 0.12, 0.5, 1 PPM 6 HR/D 5 D/WK FOR 20 MO (STUDY DURATION: 20 MO)): inactive; negative
- carcinogen call (Species: RAT, Strain/Sex: F344/MALE, Route: INHALATION, 0.12, 0.5, 1 PPM 6 HR/D 5 D/WK FOR 105 WK (STUDY DURATION: 105 WK), 0.12, 0.5, 1 PPM 6 HR/D 5 D/WK FOR 105 WK (STUDY DURATION: 105 WK)): inactive; negative
- carcinogen call (Species: RAT, Strain/Sex: F344/MALE, Route: INHALATION, 0.5, 1 PPM 6 HR/D 5 D/WK FOR 125 WK (STUDY DURATION: 125 WK), 0.5, 1 PPM 6 HR/D 5 D/WK FOR 125 WK (STUDY DURATION: 125 WK)): inactive; negative

Structure (SMILES): CCCCCCCCCCCC(=O)N(CCO)CCO
- carcinogen call (Species: MOUSE, Strain/Sex: B6C3F1/FEMALE, Route: DERMAL, 100, 200 MG/KG BW IN ETHANOL FOR 105 WK (STUDY DURATION: 105 WK), 100, 200 MG/KG BW IN ETHANOL FOR 105 WK (STUDY DURATION: 105 WK), Tumor Site: Type of Lesion: LIVER: HEPATOCELLULAR ADENOMA, HEPATOCELLULAR ADENOMA OR CARCINOMA, HEPATOCELLULAR CARCINOMA OR HEPATOBLASTOMA, HEPATOCE): equivocal
- carcinogen call (Species: MOUSE, Strain/Sex: B6C3F1/MALE, Route: DERMAL, 100, 200 MG/KG BW IN ETHANOL FOR 105 WK (STUDY DURATION: 105 WK), 100, 200 MG/KG BW IN ETHANOL FOR 105 WK (STUDY DURATION: 105 WK)): inactive; negative
- carcinogen call (Species: RAT, Strain/Sex: F344/N/FEMALE, Route: DERMAL, 50, 100 MG/KG BW IN ETHANOL FOR 105 WK (STUDY DURATION: 105 WK), 50, 100 MG/KG BW IN ETHANOL FOR 105 WK (STUDY DURATION: 105 WK)): inactive; negative
- carcinogen call (Species: RAT, Strain/Sex: F344/N/MALE, Route: DERMAL, 50, 100 MG/KG BW IN ETHANOL FOR 104 WK (STUDY DURATION: 104 WK), 50, 100 MG/KG BW IN ETHANOL FOR 104 WK (STUDY DURATION: 104 WK)): inactive; negative
